Here are results for two compounds from ChEMBL document CHEMBL1201862, “PubChem BioAssay data set” (2004).

Active and inactive are the calls of the source. Rule as the data show it, for most assays here: actives have a measured EC50 and inactives only a lower limit.

Assay [1] concerns BJ. The experiment in a line: cytotoxicity toward BJ-TERT fibroblasts, dose response, cell-based, RAS-independent, luminescence (AID 1933). The assay is classed as functional. As to conditions: Homo sapiens.
For assay [2], the system named is BJ. The experiment in a line: cells. The assay is classed as functional, cell-based. The note with it: Homo sapiens.
A short description of assay [3]: Luminescence-based counterscreen assay for KLF5 inhibitors: dose response cell-based high throughput screening assay to identify cytotoxic compounds using the IEC-6 intestinal epithelial cell line. [Related pubchem assays: 1700 (Primary screen.), 1834 (Confirmation screen.), 1858 (Summary AID.), 1905 (Counterscreen.)]. The assay is classed as functional. A general note: Counterscreens check selectivity or assay interference.

Assay [4] concerns BJ. Description: cytotoxicity toward BJ-TERT-LT-ST fibroblasts, dose response, cell-based, RAS-independent, luminescence (AID 1935).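 Also: BJ fibroblasts immortalized with TERT plus LT and ST oncogenes.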 The assay is classed as functional. As to conditions: Homo sapiens.
The nature of assay [5]: cytotoxicity toward DRD oncogenic fibroblasts, dose response, cell-based, non-viral oncogenic, luminescence (AID 1934). The assay is classed as functional. As to conditions: Homo sapiens.
Assay [6] addresses Dual specificity tyrosine-phosphorylation-regulated kinase 1A (Rattus norvegicus, UniProt Q63470). The assay is classed as biochemical, Homo sapiens.
Assay [7] is described as follows: Luminescent dose response cell-based high throughput screening assay for inhibitors of the Janus kinase 2 mutant JAK2V617F. [Related pubchem assays: 1446 (Primary screen.), 1521 (Confirmation assay.), 1486 (Counter screen.)]. The assay is classed as functional.
Assay [8] can be described thus: NIH-3T3 fibroblast cytotoxicity, dose response, cytotoxicity control, cell-based, fluorescence, Alamar Blue, secondary assay (AID 2327).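 Also: NIH-3T3 mouse fibroblasts cultured with fluconazole at 8 µg/mL.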 The assay is classed as functional. (Resazurin is reduced to fluorescent resorufin, in cell work by metabolically active cells.)
Assay [9] addresses Sphingosine 1-phosphate receptor 2 (Homo sapiens, UniProt O95136). Description: Dose Response Cell Based Assay for Antagonists of the S1P2 Receptor. [Related pubchem assays: 856, 736 ]. The assay is classed as functional.
A further assay has as its system HeLa. Description: Cytotoxicity counterscreen assay for transcriptional activators of heat shock protein 70 (Hsp70). [Related pubchem assays: 1203, 1252 ]. The note with it: Homo sapiens. The assay is classed as functional.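 Also: cells exposed to compound for 16 hours before readout.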
Assay [10] can be described thus: C. albicans growth with fluconazole, confirmation, fluorescence, retest (AID 2467). The assay is classed as functional, cell-based.
Assay [11] in a line: inhibitors of intracellular T. cruzi replication, confirmation, NIH3T3 host cells, beta-gal luminescence (AID 2044).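 Also: intracellular parasites grown in NIH/3T3 mouse fibroblasts as host cells; luminescent beta-galactosidase reporter signal from transgenic T. cruzi replicating inside host cells; inhibitors lower the luminescence signal.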 The assay is classed as functional, cell-based.
Assay [12] is described as follows: cytotoxicity toward NIH3T3 fibroblasts, dose response, counter-screen, cell-based, ATP luminescence, mouse fibroblasts (AID 2010).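 Also: cells exposed to compound for about 90 hours before reading.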 The assay is classed as functional.
Assay [13] concerns the target T1, Replicative DNA helicase DnaB (Mycobacterium tuberculosis, UniProt P9WMR3).
T1 sequence (P9WMR3 whole entry): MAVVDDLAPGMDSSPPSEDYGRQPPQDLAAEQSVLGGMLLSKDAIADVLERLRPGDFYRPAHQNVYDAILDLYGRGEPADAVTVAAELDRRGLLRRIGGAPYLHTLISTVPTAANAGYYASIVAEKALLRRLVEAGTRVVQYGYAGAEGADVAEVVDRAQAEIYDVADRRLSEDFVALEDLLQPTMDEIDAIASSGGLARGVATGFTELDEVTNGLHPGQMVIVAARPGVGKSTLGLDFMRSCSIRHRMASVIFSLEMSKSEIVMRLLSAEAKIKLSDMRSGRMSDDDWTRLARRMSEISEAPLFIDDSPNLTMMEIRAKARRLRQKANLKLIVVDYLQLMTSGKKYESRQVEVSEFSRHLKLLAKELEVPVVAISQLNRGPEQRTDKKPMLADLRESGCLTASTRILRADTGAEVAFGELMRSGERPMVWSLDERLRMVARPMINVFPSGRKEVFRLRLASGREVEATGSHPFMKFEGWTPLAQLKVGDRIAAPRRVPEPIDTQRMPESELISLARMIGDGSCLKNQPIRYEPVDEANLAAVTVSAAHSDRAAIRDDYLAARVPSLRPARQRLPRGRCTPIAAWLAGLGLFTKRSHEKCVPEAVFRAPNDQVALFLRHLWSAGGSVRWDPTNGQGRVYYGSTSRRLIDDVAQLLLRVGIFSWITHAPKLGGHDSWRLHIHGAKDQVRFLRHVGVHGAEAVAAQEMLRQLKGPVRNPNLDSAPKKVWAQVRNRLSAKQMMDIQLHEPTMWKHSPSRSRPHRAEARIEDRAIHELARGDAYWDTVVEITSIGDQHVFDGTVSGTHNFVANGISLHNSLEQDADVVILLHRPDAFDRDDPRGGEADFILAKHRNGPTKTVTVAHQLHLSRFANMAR
The experiment in a line: DnaB intein splicing inhibitors, dose response, biochemical, cell-free fluorescence (AID 449749). The assay is classed as functional.

The target in a further assay is T2, Protein RecA (Mycobacterium tuberculosis, UniProt P9WHJ3).
T2 sequence (P9WHJ3 whole entry): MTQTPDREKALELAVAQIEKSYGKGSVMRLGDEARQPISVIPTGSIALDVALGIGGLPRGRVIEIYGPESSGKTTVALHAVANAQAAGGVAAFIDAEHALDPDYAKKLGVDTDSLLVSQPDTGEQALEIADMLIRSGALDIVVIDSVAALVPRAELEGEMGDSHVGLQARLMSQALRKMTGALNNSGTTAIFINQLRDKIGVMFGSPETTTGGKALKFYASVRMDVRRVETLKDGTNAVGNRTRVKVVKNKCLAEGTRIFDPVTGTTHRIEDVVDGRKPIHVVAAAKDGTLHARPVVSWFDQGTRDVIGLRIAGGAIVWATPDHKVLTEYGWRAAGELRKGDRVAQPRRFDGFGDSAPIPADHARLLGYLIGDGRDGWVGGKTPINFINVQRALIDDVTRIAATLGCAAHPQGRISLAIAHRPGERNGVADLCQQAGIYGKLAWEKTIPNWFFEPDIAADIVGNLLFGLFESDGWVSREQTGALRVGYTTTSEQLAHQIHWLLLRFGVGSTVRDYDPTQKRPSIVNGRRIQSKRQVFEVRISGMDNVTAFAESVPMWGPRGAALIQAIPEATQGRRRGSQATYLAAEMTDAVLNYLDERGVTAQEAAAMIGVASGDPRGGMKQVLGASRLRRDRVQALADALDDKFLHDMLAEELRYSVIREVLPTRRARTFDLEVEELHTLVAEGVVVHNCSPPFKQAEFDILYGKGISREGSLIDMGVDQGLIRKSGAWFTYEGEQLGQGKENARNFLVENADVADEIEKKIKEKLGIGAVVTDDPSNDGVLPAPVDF
The experiment in a line: Fluorescence Cell-Free Homogeneous Dose Retest to Identify Inhibitors of RecA-Intein Splicing Activity. [Related pubchem assays (depositor defined):AID2097, AID2223, AID489010, AID492950]. The assay is classed as functional.

The subject of a further assay is INS1. The experiment in a line: beta cell apoptosis inhibitors, cytokine rescue, dose response, luminescence, retest (AID 449756).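 Also: cell death triggered by IL-1 beta plus TNF-alpha plus IFN-gamma mixture; protective hits raise ATP signal compared with cytokine alone wells.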 The assay is classed as functional, cell-based. The note with it: Rattus norvegicus.

Chain of Sphingosine 1-phosphate receptor 2 (O95136 whole entry): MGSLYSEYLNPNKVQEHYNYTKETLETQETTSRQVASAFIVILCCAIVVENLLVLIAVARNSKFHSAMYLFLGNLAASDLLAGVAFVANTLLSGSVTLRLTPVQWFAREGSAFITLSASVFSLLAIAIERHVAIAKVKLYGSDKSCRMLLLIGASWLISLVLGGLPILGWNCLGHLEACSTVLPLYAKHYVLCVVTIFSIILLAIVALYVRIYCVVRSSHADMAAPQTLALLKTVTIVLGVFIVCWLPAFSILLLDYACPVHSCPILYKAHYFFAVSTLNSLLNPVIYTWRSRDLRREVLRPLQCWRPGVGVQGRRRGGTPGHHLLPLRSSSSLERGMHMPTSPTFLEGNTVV

A word on the EC50: it is the midpoint of the concentration-response curve. For orientation: IC50 means the concentration needed to halve the response being measured. The term AC50 denotes the midpoint of the concentration-response curve, whichever way the signal moves. Take `COc1ccc2[nH]c(C(=O)N/N=C/c3ccc(OC)c(O)c3)cc2c1`: the EC50 was 1.89 µM (active) in the assay with BJ [1], 59.5 µM (inconclusive) in the assay with BJ [2], 50.5 µM (inconclusive) in the assay with BJ [4] and 41.7 µM (inconclusive) in assay [5]. Besides, the IC50 in assay [3] is recorded as 20.4 µM (not active). The AC50 in assay [6] is 1.04 µM (active).
The CC50 is the concentration at which the toxic effect on the cells reaches its halfway point. The low end stands for harm at low concentration, the high end for better tolerance by the cells. As for `O=C(OCn1ncc(Cl)c(Cl)c1=O)c1ccc(F)cc1`, the IC50 in assay [7] was 0.351 µM (active); in assay [9] it was 3.76 µM (active). Further, the EC50 in assay [8] was 1.85 µM (inconclusive); in assay [10], > 38 µM (not active); in assay [11], 1.16 µM (active); in assay [12] it was 1.04 µM (active); at Protein RecA, 0.938 µM (active). Moreover, the CC50 in the assay on HeLa is on record as 21.7 µM (not active). The AC50 in assay [13] was 5.07 µM (active); with INS1 it was 7.34 µM (active).
